Here are results for one substance from patent publication US9717703B2, “Emulsion and emulsion preconcentrate compositions comprising omega-3 fatty acids and uses thereof are disclosed” (GLAXOSMITHKLINE LLC, priority 2009, dated 2017).

The nature of this data set: Clinical study Part B, two-week repeat dose plasma EPA/DHA pharmacokinetics. To be noted: human, in vivo. The source says: Part A comprised single dose administration of emulsion pre-concentrate capsules or liquid emulsion equivalent to 1.68 g LOVAZA®. Part B comprised two-week, repeat dosing of selected doses of the emulsion pre-concentrate capsules. […] Part B was a single blind, randomized, parallel group, placebo controlled study consisting of a 2-week repeat dose period with 3 dose levels of the K85EE emulsion pre-concentrate capsules, and one dose of LOVAZA®. Within each cohort, at least eight healthy subjects were randomized to an active treatment group, and at least 2 subjects were randomized to a matching placebo (1000 mg capsule containing corn oil, NF 994 mg and D-Alpha Tocopherol, USP 6 mg). Data from placebo subjects was pooled for analysis. Subjects, checked into the clinical research unit, participated in a test meal on Day -2 and had 24-hr baseline EPA/DHA profiles on Day -1 and Day 1. Subjects were released from the clinic on Day 2, and returned for daily dosing on Days 3 through 12 (with a brief outpatient visit on Day 6). Subjects checked into the clinic again on the evening of Day 12, and on Day 13 they had 24-hr EPA/DHA profiles collected. Subjects were released from the clinic on Day 14, following procedures including a test meal and triglyceride sampling. In Part B, subjects were assigned to either a) one of 3 dose levels of the K85EE emulsion pre-concentrate capsules, b) LOVAZA®, or c) to placebo to match one of the 4 active treatments. Subjects were blinded as to whether they were receiving an active treatment or the corresponding placebo. The randomization ratio for active:placebo within each cohort was 4:1. Part B treatments are summarized below: The K85EE emulsion pre-concentrate capsules and LOVAZA® were administered as capsules, once daily in the manner described for Part A, and the placebos were administered as for the corresponding active treatment. Subjects were required to fast only on PK sampling days. Plasma EPA and DHA concentrations were determined according to the above method.

For omega-3-acid ethyl esters [LOVAZA], the “Free DHA AUC (0-24 h) Geometric LS Mean, Ref. (Day 1)” value stood at 5.61 µg·h/mL; the “Free DHA AUC (0-24 h) Geometric LS Mean, Test (Day 13)” value is 9.40 µg·h/mL; the “Free DHA Cmax Geometric LS Mean, Ref. (Day 1)” value was 430 ng/mL; the “Free DHA Cmax Geometric LS Mean, Test (Day 13)” value was 790 ng/mL. Moreover, the “Free EPA AUC (0-24 h) Geometric LS Mean, Ref. (Day 1)” value was determined as 1.66 µg·h/mL; the “Free EPA AUC (0-24 h) Geometric LS Mean, Test (Day 13)” value amounted to 3.22 µg·h/mL; the “Free EPA Cmax Geometric LS Mean, Ref. (Day 1)” value was 90 ng/mL; the “Free EPA Cmax Geometric LS Mean, Test (Day 13)” value was found to be 200 ng/mL. Further, the “Total DHA AUC (0-24 h) Geometric LS Mean, Ref. (Day 1)” value turned out to be 810.21 µg·h/mL; the “Total DHA AUC (0-24 h) Geometric LS Mean, Test (Day 13)” value came to 1356.51 µg·h/mL; the “Total DHA Cmax Geometric LS Mean, Ref. (Day 1)” value was 38290 ng/mL; the “Total DHA Cmax Geometric LS Mean, Test (Day 13)” value stood at 65370 ng/mL. In addition, the “Total EPA AUC (0-24 h) Geometric LS Mean, Ref. (Day 1)” value is 251.67 µg·h/mL; the “Total EPA AUC (0-24 h) Geometric LS Mean, Test (Day 13)” value worked out at 611.34 µg·h/mL; the “Total EPA Cmax Geometric LS Mean, Ref. (Day 1)” value was determined as 12860 ng/mL; the “Total EPA Cmax Geometric LS Mean, Test (Day 13)” value was found to be 30840 ng/mL.
